Source: patent publication US7601511B2, “Biotin-facilitated transport in gram negative bacteria” (priority 2003, dated 2009)

Experiments:
E. coli MG1655 = test: Effect of added compounds on uptake of biotinylated peptide (competition / block); type: cell-based, Escherichia coli; details: 31 amino acid peptide, sampled after 10 minutes
Protocol: (§1) Uptake assays. Minimal 37° C. overnights were diluted into fresh minimal media and incubated at 37° C. until they reached an OD550 of 0.5. The 10 and 31 amino acid randomized biotinylated peptides were added to the media at a concentration of 1 μg per mL of culture. After addition of the peptide to the culture, 1 mL aliquots were extracted at time intervals up to an hour, washed twice of extracellular peptide using fresh minimal media, then boiled with SDS-PAGE gradient sample buffer. Samples were run on a 10-16% tricine gradient gel (Schägger et al., 1987, Anal. Biochem. 166:368-379) and transferred to nitrocellulose membranes. The resulting Western blots were treated with NeutrAvidin Horseradish Peroxidase Conjugate and SuperSignal West Dura Extended Duration Chemiluminescent Substrate. The membranes were incubated for 5-10 minutes then exposed to X-ray film for 1-10 minutes. Bands on the film were quantified using the AlphaEase 5.5 Densitometry ProGram from Alpha Innotech.
(§2) One mL samples were extracted 10 minutes after the addition of the peptide and analyzed by SDS PAGE as previously described.

S. aureus = test: Effect of added biotin on uptake of biotinylated peptide (competition); type: cell-based, Staphylococcus aureus; details: 31 amino acid peptide; equimolar or 10× equimolar amounts, added five minutes before peptide
Protocol: as §1, §2

[1] = equimolar or 10× equimolar amounts, added five minutes before peptide

| Compound | effect on uptake of biotinylated peptide in E. coli (E. coli MG1655; CCCP 50 μM added prior to peptide) | effect on uptake of biotinylated peptide in S. aureus (S. aureus) | effect on uptake of biotinylated peptide in E. coli (E. coli MG1655; [1]) |
| --- | --- | --- | --- |
| N#CC(C#N)=NNc1cccc(Cl)c1 [CCCP, carbonyl cyanide m-chlorophenylhydrazone] | uptake is blocked | – | – |
| O=C(O)CCCC[C@@H]1SC[C@@H]2NC(=O)N[C@@H]21 [biotin] | – | no effect | could be blocked |
| Cc1ncc(C[n+]2csc(CCO)c2C)c(N)n1 [thiamine] | – | – | no effect |
| avidin: protein known to tightly bind biotin, purchased from Sigma | – | – | could competitively inhibit |
| bovine serum albumin: similarly sized protein used as control | – | – | no effect |
